# Results taken from patent US20230129651A1, “HAIRPIN STRUCTURE NUCLEIC ACID MOLECULES CAPABLE OF MODULATING TARGET GENE EXPRESSION AND USES THEREOF” (KOREA ADVANCED INSTITUTE OF SCIENCE AND TECHNOLOGY, priority 2021, published 2023).
# In the oligonucleotide strings, read from the 5' end, every base follows the letter of its sugar. An asterisk marks phosphorothioate; unmarked linkages are phosphodiester. Other units and linkages are bracketed, terminal groups are in braces. A string of capitals states the bases alone. d = 2'-deoxy (DNA)
# What was measured:
# cells = assay: Cytotoxicity assay of chemically modified miRNA triggers (CCK-8); format: cell-based; settings: after transfection
# Method: (§1) The miRNA triggers were assayed for cytotoxicity and apoptosis induction, using the CCK-8 (Cell Counting Kit-8) (Dojindo, Kumamoto, Japan) according to the manufacturer's instruction. Cells were incubated in 96-well plates (5×10^3 cells/well) at 37° C. for 24 hours under a 5% CO2 atmosphere, followed by transfection. Three days after transfection, the medium was removed. A 10-fold dilution of CCK-8 solution in DMEM was added to the cells which were then incubated at 37° C. for 2 hours. After incubation, absorbance was read at 450 nm on Tecan Infinite M200 pro microplate reader (Mnnedorf, Switzerland).
# In addition, FPS HP and 2′-OMe HP, which were the most resistant to degradation in biological samples, were analyzed for cytotoxicity. In this regard, the HP in which the entire nucleotides of miRNA trigger (LP) were modified with PS (expressed as PS in Table 6 and FIG. 6), the linear probe in which the entire nucleotides of miRNA trigger (LP) were modified with 2′-O-Me (expressed as 2′O-me in Table 6 and FIG. 6), the control DNA LP (expressed as DNA in Table 6 and FIG. 6), or siRNA was transfected into cells which were then measured for cell viability using the method of Reference Example 9. The result is depicted in FIG. 6. […]
# miR-141 and Mcl1 mRNA = assay: PAGE assay of hairpin miRNA trigger binding to miRNA and target mRNA; settings: 100 nM each, 37° C., 1 hour
# Method: To a buffer (1×PBS+137 mM NaCl, 10 mM PO4, 2.7 mM KCl, 5 mM MgCl2; pH 7.4) containing the hairpin miRNA trigger (HP) verified through computer modeling, a miRNA and/or a target mRNA were each added at a concentration of 100 nM, followed by incubation at 37° C. for 1 hour. Each sample was loaded to a PAGE gel and electrophoresed.
# Hela-141 cells = assay: Cell viability / apoptosis of Hela-141 cells after transfection; format: cell-based
# Method: as §1
# (§2) The linear miRNA triggers or siRNAs (siLuc and siMcl-1) prepared above were transfected into Hela, Hela-141, and Hela-200c cells which were then measured for cell viability. The results are depicted in FIG. 15.
# (§3) The hairpin miRNA triggers prepared above were transfected into Hela and Hela-141 cells which were then assayed for apoptosis. As a control, the siRNA (siMcl-1; Table 14) which can repress the expression of mcl-1 was transfected to Hela and Hela-141 cells and measured for apoptotic activity.
# Hela cells = assay: Cell viability / apoptosis of Hela cells after transfection; format: cell-based
# Method: as §1, §2, §3
# Hela-200c cells = assay: Cell viability / apoptosis of Hela-200c cells after transfection; format: cell-based
# Method: as §1, §2
# [1] = test system: breast cancer cell line MDA-MB-231; assay: Cell viability of MDA-MB-231 after transfection; format: cell-based; settings: Example 8-2, combination
# Method: as §1
# The seven linear miRNA triggers prepared above and the positive control siRNA(siBcl-xL) capable of binding to bcL-xL were transfected into the breast cancer cell line MDA-MB-231 in which miR-222 is overexpressed. Cell viability was measured and is depicted in FIG. 32a.
# Linear miRNA triggers that could bind to miR-222 and target bcl-xL and mcl-1, respectively, were prepared and transfected alone or in combination into the breast cancer cell line MDA-MB-231. Cell viability was measured and the measurements are depicted in FIG. 34. siRNAs against Mcl-1 and Bcl-xL were used as controls. Sequences are listed in Table 23 for the linear miRNA trigger prepared above, in Tables 22 and 9 for the controls Luc-Luc-Luc and luc-222-222, respectively, and in Table 13 for the siRNAs. Every nucleotide of the triggers and the controls was chemically modified with 2′-OMe.
# Linear miRNA triggers that could bind to miR-141 or let7f and target Bcl-xL or Mcl-1 were prepared and transfected alone or in combination into the breast cancer cell line MDA-MB-231 which was then measured for cell viability. […]
# The hairpin miRNA triggers prepared above were transfected into MDA-MB-231 and MDA-MB-453 cells which were then measured for cell viability. […]
# Hairpin miRNA triggers which could bind to miR-222 or let-7f and target mcl-1 or bcl-xL were prepared and transfected into the breast cancer cell line MDA-MB-231 which was then measured for cell viability. […]
# GFP mRNA = assay: GFP fluorescence intensity in GFP-expressing Hela-141 cells; format: cell-based; settings: trigger 30 to 60 nM, siGFP compared to siLuc
# Excerpt: A GFP fluorescent protein-expressing plasmid (used in Chen L L, DeCerbo J N, Carmichael G G. 2008. Alu element-mediated gene silencing. EMBO J 27: 1694-1705) was transfected into Hela-141 cells to prepare GFP-expressing Hela-141 cells. As stated in Reference Example 1, a linear miRNA trigger (LP; GFP_141_141), which can target GFP mRNA (=complementarily bind to GFP mRNA to regulate the expression of GFP) and complementarily bind to miR-141, and siRNAs which target GFP and Luc (Luciferase), respectively, were synthesized in Bioneer Inc. Sequences of the LP and siRNAs and types and positions of chemical modifications in each sequence are listed in Table 8, below.
# Above all, siLuc and siGFP were transfected into the GFP-expressing Hela-141 cells which were then measured for fluorescence intensity on an ELISA reader. […] In addition, the linear miRNA trigger (GFP(1)_141_141) was transfected into the GFP-expressing Hela-141 cells which were then measured for fluorescence intensity. The result is depicted in FIG. 8. For the transfection, the GFP plasmid and GFP_141_141 were used at a concentration of 0.5 to 1 μg/ml and 30 to 60 nM, respectively.
molecule,measurement,setting,value
"2′-O-Me: linear probe with entire nucleotides modified with 2′-O-Me, Table 6; SEQ ID NO 38 (UCGAAGUACUCAGCGUAAGUUCGAAGUACUCAGCGUAAGUUCGAAGUACUCAGCGUAAGU; all 2'-O-methyl, backbone not given here)",cell viability versus non-transfected negative control (in words),cells,not significantly different in viability from the negative control
"HP-Mcl1-141: unmodified hairpin miRNA trigger binding miR-141 and Mcl-1 mRNA; SEQ ID NO 18 (CAAGAGGATTATCCATCTTTACCTCACAGTGTTAATAATCCTCTTG; listed as DNA, further chemistry not given here)",binding to target mRNA in the absence of the miRNA,miR-141 and Mcl1 mRNA; lane 3,does not bind to the target mRNA
same,binding to miRNA and/or target mRNA in the presence of the miRNA,miR-141 and Mcl1 mRNA; lanes 2 and 4,bind to the miRNA and/or the target mRNA
"HP_Mcl-1(1)_141: hairpin miRNA trigger binding miR-141 and targeting mcl-1; SEQ ID NO 67 (GCUACGUAGUUCGGCCAUCUUUACCAGACAGUGUUACCGAACUACGUAGC; all 2'-O-methyl, backbone not given here; hairpin)",apoptosis induced,Hela-141 cells,about 40%
same,apoptosis / cell viability (in words),Hela cells,did not lead Hela cells to death at all
"HP_Mcl-1(3)_141: hairpin miRNA trigger binding miR-141 and targeting mcl-1; SEQ ID NO 68 (CGAAGGAAGUAUCGCCAUCUUUACCAGACAGUGUUACGAUACUUCCUUCG; all 2'-O-methyl, backbone not given here; hairpin)",apoptosis induced,Hela-141 cells,about 40%
same,apoptosis / cell viability (in words),Hela cells,did not lead Hela cells to death at all
"Mcl-1_200c_200c: linear miRNA trigger binding miR-200c and targeting Mcl-1 gene; SEQ ID NO 66 (111 in Table 24) (UCCAUCAUUACCGCGCAGUAUUAUCCAUCAUUACCGCGCAGUAUUACCGAACUACGUAGC; all 2'-O-methyl, backbone not given here)",apoptosis / cell viability (in words),Hela-141 cells,no significant influence on cell viability
same,apoptosis induced,Hela-200c cells,about 40%
"Mel-1_222_222: linear miRNA trigger binding miR-222 and targeting mcl-1; SEQ ID NO 109 (ACCCAGUAGCCAGAUGUAGCUACCCAGUAGCCAGAUGUAGCUCCGAACUACGUAGC; all 2'-O-methyl, backbone not given here)",apoptotic effect on additional introduction to the bcl-xL-targeting trigger,[1],did not further increase the apoptotic effect
"PS: miRNA trigger of random sequence with entire nucleotides PS-modified, Table 6; SEQ ID NO 37 (dT*dC*dG*dA*dA*dG*dT*dA*dC*dT*dC*dA*dG*dC*dG*dT*dA*dA*dG*dT*dT*dC*dG*dA*dA*dG*dT*dA*dC*dT*dC*dA*dG*dC*dG*dT*dA*dA*dG*dT*dT*dC*dG*dA*dA*dG*dT*dA*dC*dT*dC*dA*dG*dC*dG*dT*dA*dA*dG*dT)",cell viability,cells,less than 40%
siGFP: siRNA which targets GFP; SEQ ID NO 44 (UUAUGUUUCAGGUUCAGGG; unmodified RNA) [reference compound],GFP fluorescence intensity,GFP mRNA,significantly reduced fluorescence intensity
"GFP(1)_141_141: linear miRNA trigger targeting GFP mRNA and binding miR-141; SEQ ID NO 41 (nucleic acid, all 2'-O-methyl, backbone not given here) CCAUCUUUACCUCACAGUGUUACCAUCUUUACCUCACAGUGUUAUUAUGUUUCAGGUUCAGGGGGA",GFP fluorescence intensity,GFP mRNA,reduced GFP fluorescence intensity in a dose-dependent manner
